Reference: US20010004643A1, “Pharmaceutical composition with sotalol combination and their use in treatment of cardiac ailments” (priority 1999, published 2001)
“Also recorded” adds a separate entry of the source. Marks after values point to notes of the source that are not given here.

Columns and labels:
[1] = system: beta adrenergic blockade, isolated right auricle preparation of rabbit; test: Beta blocking potency (pA2 against isoprenaline) in isolated rabbit right auricle; conditions: isoprenaline chronotropic response, Schild's plot
Description: Estimation of the beta blockade of various ratios of d- and l- isomers of sotalol was carried out in the isolated right auricle preparation of rabbit. The spontaneously beating right atrium was dissected and mounted in a 20 ml tissue bath. The resting tension on the atria was set at 1 g. The contractions were recorded using a force displacement transducer. The spontaneous contractions of the right atria were recorded isometrically and the heart rate was obtained as a derived parameter using a ratemeter that gave the output in beats per minute. Six different ratios of d and l isomers were investigated (1:1, 2:1, 3:1, 4:1, 5:1 and 1:0). Dose-response-curves (DRC) for isoprenaline in the isolated atria, using the chronotropic response were determined by cumulative addition of isoprenaline. The pA2 values of each of the ratios were estimated using the classical Schild's plot (Schild, 1957) and the values are shown in Table 1.

[2] = system: ouabain induced arrhythmia (VT, VF, mortality); test: Ouabain induced arrhythmia model in guinea pig; type: in vivo; conditions: for % INCIDENCE OF MORTALITY: mortality at 60 min; for deaths due to conduction block (60 min), actual incidence (value in parenthesis) / deaths due to tachyarrhythmia (60 min), actual incidence (value in parenthesis): number of animals; for actual incidence of VF (value in parenthesis) / actual incidence of VT (value in parenthesis) / actual incidence of mortality (value in parenthesis): number of animals of the group; for % INCIDENCE OF VF / % INCIDENCE OF VT: ouabain 240 μg/kg in three doses, observed one hour; for DEATHS DUE TO CONDUCTION BLOCK (60 MIN) Percentage / DEATHS DUE TO TACHYARRHYTHMIA (60 MIN) Percentage: percentage deaths out of total mortality; for actual incidence of mortality (value in parenthesis): 60 min
Source text: Method: Guinea pigs (Dunken Hartley) of either sex weighing between 400 and 500 g were used for the study. The animals were anesthetized with urethane (1.25 g/kg. i.p.). The left common carotid artery and left jugular vein were cannulated for arterial blood pressure monitoring and intravenous access respectively. Lead II electrocardiogram, arterial blood pressure, mean arterial blood pressure (MABP), heart rate were monitored throughout the experiment.
After initial surgical preparations and allowing 30 minutes for the animal to stabilise the first dose of ouabain (90 μg/kg) was administered over a period of one minute. After the interval of thirty minutes, second dose of ouabain (60 μg/kg) was administered over a period of one minute. One minute after this dose, 0.5 ml saline (in control experiments) was administered over a period of one minute. After an interval of 10 minutes a third dose of ouabain (90 μg/kg) was administered over a period of one minute. […] The test compounds were administered to animals in test group in place of saline to evaluate their antiarrhythmic potential. From the ECG recordings, the incidence of VT, VF and mortality were recorded. The doses of ratios of sotalol isomers studied were 0.1, 0.5 and 2.5 mg/kg.
Interpretation of ECG recordings: Minor disturbance in rhythm was not considered while evaluating ventricular tachyarrhythmias. A run of more than 3 ventricular ectopic beats having wide QRS complexes associated with partial haemodynamic collapse was considered as Ventricular Tachycardia (VT). Total morphological irregularity of repetitive complexes for at least six cycles associated with complete haemodynamic collapse was considered as Ventricular Fibrillation (VF). Successful arrhythmia protection was defined as no occurrence of VT and VF from the injection of saline/test drug till the end of the experiment.
Statistics: Chi square test with continuity correction at 95% confidence limit was applied to find out the statistical significance between control and test groups for incidence of VT, VF and mortality. Whenever, any of the value in a cell was less than 5, Fischer's exact probability test was used.
Results: Different ratios of sotalol in the dose range from 0.02 mg/kg to 12.5 mg/kg were studied in individual groups of animals. In all 18 groups were studied and at least 6 animals were used in each group. In control animals ouabain 240 μg/kg in three divided doses induced reproducible ventricular tachyarrhythmias in guinea pigs. It was observed that ventricular arrhythmias appeared after the administration of the third dose. Guinea pigs which responded early i.e. before or within 1 min. of administration of the second dose, were considered early responders and were not included in the study. […] In the study, control experiments were carried out randomly interspersed in test groups. Among the 42 control animals the incidence of VT was 81%, incidence of VF was 71.4% and the incidence of mortality at 60 minutes was 61.9%.

[3] = guinea pig, in vivo, listed as 2.5:1 ratio (d:l)

CC(C)NCC(O)c1ccc(NS(C)(=O)=O)cc1 (racemic) [dl-SOTALOL, N-[4-[1-hydroxy-2-[(1-methylethyl)amino]ethyl]phenyl] methane sulfonamide]
pA2 Mean [1]: 6.48
% INCIDENCE OF MORTALITY ([2]; 0.02 mg/kg): 16.6%
deaths due to conduction block (60 min), actual incidence (value in parenthesis) ([2]; 0.02 mg/kg): (0)
deaths due to tachyarrhythmia (60 min), actual incidence (value in parenthesis) ([2]; 0.02 mg/kg): (1)
actual incidence of VF (value in parenthesis) ([2]; 0.02 mg/kg): (5)
actual incidence of VT (value in parenthesis) ([2]; 0.02 mg/kg): (5)
% INCIDENCE OF VF ([2]; 0.02 mg/kg): 83.3%
% INCIDENCE OF VT ([2]; 0.02 mg/kg): 83.3%
DEATHS DUE TO CONDUCTION BLOCK (60 MIN) Percentage ([2]; 0.02 mg/kg): 00.0%
DEATHS DUE TO TACHYARRHYTHMIA (60 MIN) Percentage ([2]; 0.02 mg/kg): 100.0%
actual incidence of mortality (value in parenthesis) ([2]; 0.1 mg/kg): (2)
% INCIDENCE OF MORTALITY ([2]; 0.1 mg/kg): 33.3%
deaths due to conduction block (60 min), actual incidence (value in parenthesis) ([2]; 0.1 mg/kg): (1)
deaths due to tachyarrhythmia (60 min), actual incidence (value in parenthesis) ([2]; 0.1 mg/kg): (1)
actual incidence of VF (value in parenthesis) ([2]; 0.1 mg/kg): (2)
actual incidence of VT (value in parenthesis) ([2]; 0.1 mg/kg): (2)*
% INCIDENCE OF VF ([2]; 0.1 mg/kg): 33.3%
% INCIDENCE OF VT ([2]; 0.1 mg/kg): 33.3%
DEATHS DUE TO CONDUCTION BLOCK (60 MIN) Percentage ([2]; 0.1 mg/kg): 50.0%
DEATHS DUE TO TACHYARRHYTHMIA (60 MIN) Percentage ([2]; 0.1 mg/kg): 50.0%
actual incidence of mortality (value in parenthesis) ([2]; 0.5 mg/kg): (3)
% INCIDENCE OF MORTALITY ([2]; 0.5 mg/kg): 50.0%
deaths due to conduction block (60 min), actual incidence (value in parenthesis) ([2]; 0.5 mg/kg): (3)
deaths due to tachyarrhythmia (60 min), actual incidence (value in parenthesis) ([2]; 0.5 mg/kg): (0)
actual incidence of VF (value in parenthesis) ([2]; 0.5 mg/kg): (2)
actual incidence of VT (value in parenthesis) ([2]; 0.5 mg/kg): (2)*
% INCIDENCE OF VF ([2]; 0.5 mg/kg): 33.3%
% INCIDENCE OF VT ([2]; 0.5 mg/kg): 33.3%
DEATHS DUE TO CONDUCTION BLOCK (60 MIN) Percentage ([2]; 0.5 mg/kg): 100.0%
DEATHS DUE TO TACHYARRHYTHMIA (60 MIN) Percentage ([2]; 0.5 mg/kg): 00.0%
protection against mortality ([2]; 2.5 mg/kg): no protection
protection from deaths due to tachyarrhythmias ([2]; 2.5 mg/kg): completely protected
actual incidence of mortality (value in parenthesis) ([2]; 2.5 mg/kg): (6)
% INCIDENCE OF MORTALITY ([2]; 2.5 mg/kg): 60.0%
% INCIDENCE OF MORTALITY ([2]; 2.5 mg/kg, listed as d:l sotalol (ratio 1:1)): 60%
deaths due to conduction block (60 min), actual incidence (value in parenthesis) ([2]; 2.5 mg/kg): (6)
deaths due to tachyarrhythmia (60 min), actual incidence (value in parenthesis) ([2]; 2.5 mg/kg): (0)*
actual incidence of VF (value in parenthesis) ([2]; 2.5 mg/kg): (0)*
actual incidence of VT (value in parenthesis) ([2]; 2.5 mg/kg): (0)*
% INCIDENCE OF VF ([2]; 2.5 mg/kg): 00.0%
% INCIDENCE OF VT ([2]; 2.5 mg/kg): 00.0%
DEATHS DUE TO CONDUCTION BLOCK (60 MIN) Percentage ([2]; 2.5 mg/kg): 100.0%
DEATHS DUE TO TACHYARRHYTHMIA (60 MIN) Percentage ([2]; 2.5 mg/kg): 00.0%
protection against ouabain induced VT ([2]; 0.1, 0.5 and 2.5 mg/kg dose): able to protect
protection against VF ([2]; 0.1 and 0.5 mg/kg doses): some protection
cause of deaths ([2]; as the dose was increased): entirely due to conduction abnormalities
dose at which complete protection against VT was observed ([2]; guinea pig, in vivo): 2.5 mg/kg
dose that completely protected against VF ([2]; guinea pig, in vivo): 2.5 mg/kg
minimum protective dose against ouabain induced VT ([2]; guinea pig, in vivo): 0.1 mg/kg
cause of deaths ([2]; lower doses): due to tachyarrhythmias
protection against mortality ([2]; lower doses): reduced mortality
deaths due to conduction block increased ([2]; no dose stated): increased

CC(C)NCC(O)c1ccc(NS(C)(=O)=O)cc1 (centres unmarked) [2.5:1 RATIO, N-[4-[1-hydroxy-2-[(1-methylethyl)amino]ethyl]phenyl] methane sulfonamide]
mortality compared to 2:1 ratio at the same dose ([2]; 0.5 mg/kg): lower
protection against VF ([2]; 0.5 mg/kg): some protection, it was not complete
actual incidence of mortality (value in parenthesis) ([2]; 0.5 mg/kg): (2)
protection against ouabain induced VT ([2]; 0.5 mg/kg, listed as 2.5:1 ratio (d:l)): protection was not complete
% INCIDENCE OF MORTALITY ([2]; 0.5 mg/kg): 33.3%
deaths due to conduction block (60 min), actual incidence (value in parenthesis) ([2]; 0.5 mg/kg): (2)
deaths due to tachyarrhythmia (60 min), actual incidence (value in parenthesis) ([2]; 0.5 mg/kg): (0)
actual incidence of VF (value in parenthesis) ([2]; 0.5 mg/kg): (2)
actual incidence of VT (value in parenthesis) ([2]; 0.5 mg/kg): (2)*
% INCIDENCE OF VF ([2]; 0.5 mg/kg): 33.3%
% INCIDENCE OF VT ([2]; 0.5 mg/kg): 33.3%
DEATHS DUE TO CONDUCTION BLOCK (60 MIN) Percentage ([2]; 0.5 mg/kg): 100.0%
DEATHS DUE TO TACHYARRHYTHMIA (60 MIN) Percentage ([2]; 0.5 mg/kg): 00.0%
protection against mortality ([2]; 2.5 mg/kg): protected significantly
protection from deaths due to tachyarrhythmias ([2]; 2.5 mg/kg): completely protected
protection against arrhythmias (VT and VF) ([2]; 2.5 mg/kg, listed as 2.5:1): completely protects; also recorded: complete protection
% INCIDENCE OF MORTALITY ([2]; 2.5 mg/kg): 16.6%
% INCIDENCE OF MORTALITY ([2]; 2.5 mg/kg, listed as 2.5:1): 16.6%
deaths due to conduction block (60 min), actual incidence (value in parenthesis) ([2]; 2.5 mg/kg): (1)
deaths due to tachyarrhythmia (60 min), actual incidence (value in parenthesis) ([2]; 2.5 mg/kg): (0)
actual incidence of VF (value in parenthesis) ([2]; 2.5 mg/kg): (0)*
actual incidence of VT (value in parenthesis) ([2]; 2.5 mg/kg): (0)*
% INCIDENCE OF VF ([2]; 2.5 mg/kg): 0.0%
% INCIDENCE OF VT ([2]; 2.5 mg/kg): 0.0%
DEATHS DUE TO CONDUCTION BLOCK (60 MIN) Percentage ([2]; 2.5 mg/kg): 100.0%
DEATHS DUE TO TACHYARRHYTHMIA (60 MIN) Percentage ([2]; 2.5 mg/kg): 00.0%
dose at which complete protection against VT was observed [2, 3]: 2.5 mg/kg
dose that completely protected against VF [2, 3]: 2.5 mg/kg
cause of deaths ([2]; no dose stated): due to conduction abnormalities
mortality compared with control groups ([2]; no dose stated): less than that of control groups

CC(C)NCC(O)c1ccc(NS(C)(=O)=O)cc1 (centres unmarked) [5:1, N-[4-[1-hydroxy-2-[(1-methylethyl)amino]ethyl]phenyl] methane sulfonamide]
pA2 Mean [1]: 5.85
